Data on 7 compounds can be found in patent US6693085B2, “Macrolide compound JK” (Higeta Shoyu Co., Ltd., priority 2000, dated 2004).

In brackets after ≈: the same amount, converted by molar mass. Read-outs that look alike come from different tables or passages of the source. Where only a bound is given, the exact number is not on record here.

Experiment [1] deals with Actinomadura pelletieri IFM0903. Put plainly: Sensitivity of the producing strain against antibiotics. The format is cell-based. The conditions noted are these: Actinomadura pelletieri IFM0903, strain characterisation.
For experiment [2], the system named is MRSA. In words: Antimicrobial activity (MIC, broth dilution). The class given is cell-based, Staphylococcus aureus. The conditions noted are these: 24 hours, 37° C. How it is done: (§1) Antimicrobial activity of JK-1 was determined by measuring the minimum growth inhibition concentration (MIC) as follows.
(§2) MIC values of JK against a variety of microorganisms were determined on a Mueller-Hinton broth containing 0.2% glucose according to the rule of Japanese Society of Chemotherapy (Kouseibussitsu Taiyo (The Essentials of Antibiotics), 4th ed., University of Tokyo Press, 1992).
(§3) JK-1 was dissolved in methanol, and diluted with the above medium, repeating 2-fold dilution starting from 1 mg/ml. Test microorganisms were added to the above medium to give a test solution of 1×10^6 cells/ml. The JK solution (20 μl) and the test solution (180 μl) were dispensed in a 96 well microplate and incubated at 37° C. After 24 hours, either positive or negative growth was confirmed visually, and the MIC value was caluculated.
In general terms: Dilution methods test growth across graded concentrations, often in twofold steps.

For experiment [3], the system named is Asperigillus niger. Put plainly: Antimicrobial activity (MIC, broth dilution). The class given is cell-based. The conditions noted are these: 24 hours, 37° C. As to the method:
as §1, §2, §3

The test system of experiment [4] is Bacillus subtilis PCII89. Put plainly: Antimicrobial activity (MIC, broth dilution). The format is cell-based. The conditions noted are these: Bacillus subtilis PCII89, 24 hours, 37° C. How it is done:
as §1, §2, §3

In experiment [5] the test system is Candida albicans. In words: Antimicrobial activity (MIC, broth dilution). The conditions noted are these: 24 hours, 37° C. The class given is cell-based. How it is done:
as §1, §2, §3

Experiment [6] deals with Corynebacterium xerosis. In words: Antimicrobial activity (MIC, broth dilution). The format is cell-based. To be noted: 24 hours, 37° C. How it is done:
as §1, §2, §3

Experiment [7] has as its system Escherichia coli NIH JC-2. In words: Antimicrobial activity (MIC, broth dilution). The class given is cell-based. To be noted: Escherichia coli NIH JC-2, 24 hours, 37° C. As to the method:
as §1, §2, §3

In experiment [8] the test system is Gordonia bronchialis. In words: Antimicrobial activity (MIC, broth dilution). The class given is cell-based. To be noted: 24 hours, 37° C. How it is done:
as §1, §2, §3

For experiment [9], the system named is Micrococcus luteus. Put plainly: Antimicrobial activity (MIC, broth dilution). The class given is cell-based. To be noted: 24 hours, 37° C. As to the method: as §1, §2, §3
In experiment [10] the test system is Nocardia asteroides. In words: Antimicrobial activity (MIC, broth dilution). The format is cell-based. To be noted: 24 hours, 37° C. As to the method: as §1, §2, §3
The subject of experiment [11] is Staphylococcus aureus 209P. Put plainly: Antimicrobial activity (MIC, broth dilution). The format is cell-based. The conditions noted are these: 24 hours, 37° C. As to the method: as §1, §2, §3
Experiment [12] has as its system clinically freshly isolated MRSAs. Put plainly: Anti-MRSA activity (MIC), 11 clinically freshly isolated MRSA strains. The format is cell-based, Staphylococcus aureus. To be noted: for MIC: Staphylococcus aureus, MRSA. As to the method:
as §1, §2, §3
Among gram-positive bacteria, there was no difference between MIC values, especially, of Staphylococcus aureus and its multi-drug resistant strain MRSA (Table 5) which have become a clinical problem. In this situation, the antimicrobial activity of JK-1 was compared to that of commercially available 3 drugs in 11 strains of clinically freshly isolated MRSAs.

In experiment [13] the test system is gram-positive bacteria. Put plainly: Antimicrobial activity (MIC), summary for gram-positive bacteria. To be noted: range over the gram-positive bacteria of Table 5. The format is cell-based. How it is done: as §1, §2, §3
For experiment [14], the system named is gram-negative bacteria and fungi. In words: Antimicrobial activity (MIC), summary for gram-negative bacteria and fungi. The class given is cell-based. To be noted: summary of Table 5. How it is done:
as §1, §2, §3

For the compound `O=c1[nH]cc(F)c(=O)[nH]1` [Compound 5-FU, 5-FU], in experiment [1], the “Sensitivity against Antibiotics” value is listed as “positive”.

In the case of `CCCC1C=CC2C=C(C)C(OC3CC(NC)C(NC(=O)c4c(O)ccc(Cl)c4C)C(C)O3)CC=CC3C(CC)=CC4C(O)C(O)CC(C)C4C3(C)C(=O)C3=C(O)C2(C1)OC3=O` (stereo not shown) [JK-1], the MIC values in [2] is 0.05 µg/mL (≈ 0.057 µM); in experiment [3], above 100 µg/mL; in [4], 0.39 µg/mL (≈ 0.444 µM); in experiment [5] it was above 100 µg/mL; in [6], 0.025 µg/mL (≈ 0.0285 µM); in experiment [7] it was above 100 µg/mL. The MIC values in experiment [8] was determined as 0.39 µg/mL (≈ 0.444 µM); in [9], 0.05 µg/mL (≈ 0.057 µM); in experiment [10] it was 0.05 µg/mL (≈ 0.057 µM); in [11], 0.05 µg/mL (≈ 0.057 µM); in experiment [12] (MRSA strain 3666), 0.2 µg/mL (≈ 0.228 µM); in experiment [12] (MRSA strain 3667), 0.2 µg/mL (≈ 0.228 µM). Moreover, the MIC values in [12] (MRSA strain 3668) stood at 0.2 µg/mL (≈ 0.228 µM); in experiment [12] (MRSA strain 3669) it was 0.2 µg/mL (≈ 0.228 µM); in [12] (MRSA strain 3670), 1.56 µg/mL (≈ 1.78 µM); in experiment [12] (MRSA strain 3671), 0.1 µg/mL (≈ 0.114 µM); in experiment [12] (MRSA strain S-1), 0.78 µg/mL (≈ 0.889 µM); in experiment [12] (MRSA strain S-2), 0.39 µg/mL (≈ 0.444 µM). In addition, the MIC values worked out at 0.39 µg/mL (≈ 0.444 µM) in experiment [12] (MRSA strain S-3), 0.2 µg/mL (≈ 0.228 µM) in experiment [12] (MRSA strain S-4) and 0.2 µg/mL (≈ 0.228 µM) in experiment [12] (MRSA strain S-5). The “activity relative to vancomycin” value in experiment [12] (11 strains of clinically freshly isolated MRSAs) is listed as “about 6 times”. Further, the “MIC values against gram-positive bacteria” value in [13] was in the range of 0.025 to 0.39 µg/mL. For the same compound, the “antimicrobial activity against gram-negative bacteria and fungi” value in experiment [14] is reported as “No antimicrobial activity”.

On to `CCCC1C=CC2C=C(C)C(OC3CC(N)C(NC(=O)c4c(O)ccc(Cl)c4C)C(C)O3)CC=CC3C(CC)=CC4C(O)C(O)CC(C)C4C3(C)C(=O)C3=C(O)C2(C1)OC3=O` (stereo not shown) [JK-2], for which the MIC values in [12] (MRSA strain 3666) was determined as 0.2 µg/mL (≈ 0.232 µM); in experiment [12] (MRSA strain 3667), 0.2 µg/mL (≈ 0.232 µM); in experiment [12] (MRSA strain 3668) it was 0.2 µg/mL (≈ 0.232 µM); in experiment [12] (MRSA strain 3669), 0.2 µg/mL (≈ 0.232 µM); in [12] (MRSA strain 3670), 0.78 µg/mL (≈ 0.903 µM); in [12] (MRSA strain 3671), 0.2 µg/mL (≈ 0.232 µM). For the same compound, the MIC values in experiment [12] (MRSA strain S-1) is 0.78 µg/mL (≈ 0.903 µM); in experiment [12] (MRSA strain S-2), 0.78 µg/mL (≈ 0.903 µM); in experiment [12] (MRSA strain S-3) it was 0.39 µg/mL (≈ 0.452 µM); in [12] (MRSA strain S-4) it was 0.39 µg/mL (≈ 0.452 µM); in [12] (MRSA strain S-5) it was 0.2 µg/mL (≈ 0.232 µM).

With `NC[C@H]1O[C@H](O[C@H]2[C@H](O)[C@@H](O[C@H]3O[C@H](CO)[C@@H](O)[C@H](N)[C@H]3O)[C@H](N)C[C@@H]2N)[C@H](N)C[C@@H]1O` [Tobramycin], the “Sensitivity against Antibiotics” value in experiment [1] is on record as “positive”.

One may read the MIC as the least concentration at which growth counts as inhibited. As for `CC[C@H]1OC(=O)[C@H](C)[C@@H](O[C@H]2C[C@@](C)(OC)[C@@H](O)[C@H](C)O2)[C@H](C)[C@@H](O[C@@H]2O[C@H](C)C[C@H](N(C)C)[C@H]2O)[C@](C)(O)C[C@@H](C)C(=O)[C@H](C)[C@@H](O)[C@]1(C)O` [erythromycin], the MIC in experiment [12] (MRSA strain 3666, read-out: MIC values) is above 100 µg/mL; in experiment [12] (MRSA strain 3667, read-out: MIC values), above 100 µg/mL; in experiment [12] (MRSA strain 3668, read-out: MIC values), above 100 µg/mL; in [12] (MRSA strain 3669, read-out: MIC values), above 100 µg/mL; in experiment [12] (MRSA strain 3670, read-out: MIC values) it was above 100 µg/mL; in experiment [12] (MRSA strain 3671, read-out: MIC values) it was above 100 µg/mL. Besides, the MIC was above 100 µg/mL in [12] (MRSA strain S-1, read-out: MIC values); 12.5 µg/mL (≈ 17 µM) in experiment [12] (MRSA strain S-2, read-out: MIC values); above 100 µg/mL in experiment [12] (MRSA strain S-3, read-out: MIC values); above 100 µg/mL in experiment [12] (MRSA strain S-4, read-out: MIC values); above 100 µg/mL in [12] (MRSA strain S-5, read-out: MIC values).

Take `CC1(C)S[C@@H]2[C@H](NC(=O)Cc3ccccc3)C(=O)N2[C@H]1C(=O)O` [penicillin-G]: the MIC values in experiment [12] (MRSA strain 3666), in [12] (MRSA strain 3667), in experiment [12] (MRSA strain 3668), in [12] (MRSA strain 3669), in experiment [12] (MRSA strain 3670) and in experiment [12] (MRSA strain 3671) was above 100 µg/mL in each case. Further, the MIC values in experiment [12] (MRSA strain S-1), in [12] (MRSA strain S-2), in experiment [12] (MRSA strain S-3), in [12] (MRSA strain S-4) and in experiment [12] (MRSA strain S-5) was above 100 µg/mL throughout.

Consider `CN[C@H](CC(C)C)C(=O)N[C@H]1C(=O)N[C@@H](CC(N)=O)C(=O)N[C@H]2C(=O)N[C@H]3C(=O)N[C@H](C(=O)N[C@H](C(=O)O)c4cc(O)cc(O)c4-c4cc3ccc4O)[C@H](O)c3ccc(c(Cl)c3)Oc3cc2cc(c3O[C@@H]2O[C@H](CO)[C@@H](O)[C@H](O)[C@H]2O[C@H]2C[C@](C)(N)[C@H](O)[C@H](C)O2)Oc2ccc(cc2Cl)[C@H]1O` [vancomycin], for which the minimum inhibitory concentration (MIC) stood at 1.56 µg/mL (≈ 1.08 µM) in experiment [12] (read-out: MIC values, MRSA strain 3666); 3.13 µg/mL (≈ 2.16 µM) in [12] (read-out: MIC values, MRSA strain 3667); 1.56 µg/mL (≈ 1.08 µM) in [12] (read-out: MIC values, MRSA strain 3668); 0.78 µg/mL (≈ 0.538 µM) in experiment [12] (read-out: MIC values, MRSA strain 3669); 0.78 µg/mL (≈ 0.538 µM) in experiment [12] (read-out: MIC values, MRSA strain 3670); 0.78 µg/mL (≈ 0.538 µM) in experiment [12] (read-out: MIC values, MRSA strain 3671). In addition, the minimal inhibitory concentration (MIC) in [12] (read-out: MIC values, MRSA strain S-1) is 6.25 µg/mL (≈ 4.31 µM); in experiment [12] (read-out: MIC values, MRSA strain S-2), 3.13 µg/mL (≈ 2.16 µM); in experiment [12] (read-out: MIC values, MRSA strain S-3), 1.56 µg/mL (≈ 1.08 µM); in experiment [12] (read-out: MIC values, MRSA strain S-4) it was 1.56 µg/mL (≈ 1.08 µM); in experiment [12] (read-out: MIC values, MRSA strain S-5), 1.56 µg/mL (≈ 1.08 µM).
